In PubChem BioAssay AID248 (DTP/NCI, 2004):
Several values for one entry are separate records, joined by “and”; a condition that tells them apart may be missing. Identical values can stand only once. Toxic doses and inconclusive results are not listed.

Tested on: L1210 leukemia ip in BDF1 mice, survival T/C
Assay: NCI In Vivo Anticancer Drug Screen. Data for tumor model L1210 Leukemia (intraperitoneal) in B6D2F1 (BDF1) mice
Details: endpoint: mean survival time, higher = longer survival
How it was run: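 Each compound was tested against a transplantable tumor grown in mice. The endpoint was survival, with treated animals benchmarked against vehicle controls as a simple ratio.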

[1] = dose: 100.0 mg/kg/injection, schedule: Q01DX009 (ip), vehicle: Klucel (hydroxypropylcellulose) (HPC)
[2] = dose: 100.0 mg/kg/injection, schedule: Q04DX003 (ip), vehicle: Klucel (hydroxypropylcellulose) (HPC)
[3] = dose: 200.0 mg/kg/injection, schedule: Q01DX009 (ip), vehicle: Klucel (hydroxypropylcellulose) (HPC)
[4] = dose: 200.0 mg/kg/injection, schedule: Q04DX003 (ip), vehicle: Klucel (hydroxypropylcellulose) (HPC)
[5] = dose: 400.0 mg/kg/injection, schedule: Q01DX009 (ip), vehicle: Klucel (hydroxypropylcellulose) (HPC)
[6] = dose: 100.0 mg/kg/injection, schedule: Q04DX003 (ip), vehicle: saline
[7] = dose: 200.0 mg/kg/injection, schedule: Q04DX003 (ip), vehicle: saline
[8] = dose: 50.0 mg/kg/injection, schedule: Q04DX003 (ip), vehicle: Klucel (hydroxypropylcellulose) (HPC)
[9] = dose: 100.0 mg/kg/injection, schedule: Q04DX003 (ip), vehicle: saline with Tween-80
[10] = dose: 200.0 mg/kg/injection, schedule: Q04DX003 (ip), vehicle: saline with Tween-80
[11] = dose: 400.0 mg/kg/injection, schedule: Q04DX003 (ip), vehicle: saline with Tween-80
[12] = dose: 50.0 mg/kg/injection, schedule: Q01DX009 (ip), vehicle: saline
[13] = dose: 100.0 mg/kg/injection, schedule: Q01DX009 (ip), vehicle: saline

## CCC[CH2][Sn]([Cl])([Cl])[CH2]CCC
dose: 2.5 mg/kg/injection, schedule: Q01DX009 (ip), vehicle: saline with Tween-80
  T/C: 100 % of control
dose: 5.0 mg/kg/injection, schedule: Q01DX009 (ip), vehicle: saline with Tween-80
  T/C: 95 % of control
dose: 5.0 mg/kg/injection, schedule: Q04DX003 (ip), vehicle: saline with Tween-80
  T/C: 104 % of control
dose: 10.0 mg/kg/injection, schedule: Q01DX009 (ip), vehicle: saline with Tween-80
  T/C: 95 % of control
dose: 10.0 mg/kg/injection, schedule: Q04DX003 (ip), vehicle: saline with Tween-80
  T/C: 101 % of control
dose: 20.0 mg/kg/injection, schedule: Q04DX003 (ip), vehicle: saline with Tween-80
  T/C: 119 % of control

## Cc1cc(C)c(NC(=O)Nc2ccccc2C)c(C)c1
[1]
  T/C: 97 % of control
[2]
  T/C: 108 % of control
[3]
  T/C: 103 % of control
[4]
  T/C: 98 % of control
[5]
  T/C: 99 % of control
dose: 400.0 mg/kg/injection, schedule: Q04DX003 (ip), vehicle: Klucel (hydroxypropylcellulose) (HPC)
  T/C: 94 % of control

## O=C(O)c1ccccc1OCc1cc(=O)[nH]c(=O)[nH]1
[6]
  T/C: 95 % of control
[7]
  T/C: 95 % of control
dose: 400.0 mg/kg/injection, schedule: Q04DX003 (ip), vehicle: saline
  T/C: 98 % of control

## CC(=O)Nc1ccc2c(c1)C(c1ccccc1)=NCC(=O)N2
dose: 100.0 mg/kg/injection, schedule: Q01DX001 (ip), vehicle: saline
  T/C: 103 % of control
dose: 100.0 mg/kg/injection, schedule: Q01DX Z (ip), vehicle: carboxymethylcellulose (CMC)
  T/C: 107 % of control
dose: 100.0 mg/kg/injection, schedule: Q01DX Z (ip), vehicle: methylcellulose (MC)
  T/C: 100 % of control
dose: 150.0 mg/kg/injection, schedule: Q01DX Z (ip), vehicle: carboxymethylcellulose (CMC)
  T/C: 112 % of control and 114 % of control
dose: 150.0 mg/kg/injection, schedule: Q01DX Z (ip), vehicle: methylcellulose (MC)
  T/C: 103 % of control
dose: 200.0 mg/kg/injection, schedule: Q01DX001 (ip), vehicle: saline
  T/C: 103 % of control
dose: 225.0 mg/kg/injection, schedule: Q01DX Z (ip), vehicle: carboxymethylcellulose (CMC)
  T/C: 100 % of control
dose: 225.0 mg/kg/injection, schedule: Q01DX Z (ip), vehicle: methylcellulose (MC)
  T/C: 107 % of control
dose: 337.0 mg/kg/injection, schedule: Q01DX Z (ip), vehicle: carboxymethylcellulose (CMC)
  T/C: 97 % of control
dose: 337.0 mg/kg/injection, schedule: Q01DX Z (ip), vehicle: methylcellulose (MC)
  T/C: 109 % of control
dose: 400.0 mg/kg/injection, schedule: Q01DX001 (ip), vehicle: saline
  T/C: 91 % of control
dose: 600.0 mg/kg/injection, schedule: Q01DX001 (ip), vehicle: saline
  T/C: 98 % of control
dose: 1200.0 mg/kg/injection, schedule: Q01DX001 (ip), vehicle: saline
  T/C: 120 % of control
dose: 2400.0 mg/kg/injection, schedule: Q01DX001 (ip), vehicle: saline
  T/C: 120 % of control

## CSc1nnc2sc(C)nn12
dose: 100.0 mg/kg/injection, schedule: Q01DX001 (ip), vehicle: carboxymethylcellulose (CMC)
  T/C: 104 % of control
dose: 200.0 mg/kg/injection, schedule: Q01DX001 (ip), vehicle: carboxymethylcellulose (CMC)
  T/C: 104 % of control
dose: 400.0 mg/kg/injection, schedule: Q01DX001 (ip), vehicle: carboxymethylcellulose (CMC)
  T/C: 102 % of control

## CC(CC=C(CCC(C)CC(C)(C)C)CCC(C)CC(C)(C)C)CC(C)(C)C (stereo not given)
dose: 75.0 mg/kg/injection, schedule: Q01DX001 (ip), vehicle: saline with Tween-80
  T/C: 99 % of control
dose: 150.0 mg/kg/injection, schedule: Q01DX001 (ip), vehicle: saline with Tween-80
  T/C: 100 % of control
dose: 300.0 mg/kg/injection, schedule: Q01DX001 (ip), vehicle: saline with Tween-80
  T/C: 97 % of control

## Cc1c([N+](=O)[O-])cc(C(C)(C)C)c(OC(=O)Nc2cccc(Cl)c2)c1[N+](=O)[O-]
dose: 12.5 mg/kg/injection, schedule: Q01DX009 (ip), vehicle: Klucel (hydroxypropylcellulose) (HPC)
  T/C: 100 % of control
dose: 25.0 mg/kg/injection, schedule: Q01DX009 (ip), vehicle: Klucel (hydroxypropylcellulose) (HPC)
  T/C: 94 % of control
dose: 50.0 mg/kg/injection, schedule: Q01DX009 (ip), vehicle: Klucel (hydroxypropylcellulose) (HPC)
  T/C: 101 % of control

## CSC(=S)NNC(=O)c1ccc(C(F)(F)F)cc1
dose: 10.0 mg/kg/injection, schedule: Q04DX003 (ip), vehicle: saline
  T/C: 106 % of control
dose: 20.0 mg/kg/injection, schedule: Q04DX003 (ip), vehicle: saline
  T/C: 106 % of control
dose: 40.0 mg/kg/injection, schedule: Q04DX003 (ip), vehicle: saline
  T/C: 105 % of control

## CN=C(N)c1ccc(NC(=O)/C=C\c2ccc(C(=O)Nc3ccc(C(N)=NC)cc3)cc2)cc1
dose: 1.88 mg/kg/injection, schedule: Q01DX Z (ip), vehicle: saline
  T/C: 112 % of control
dose: 3.75 mg/kg/injection, schedule: Q01DX Z (ip), vehicle: saline
  T/C: 119 % of control
dose: 7.5 mg/kg/injection, schedule: Q01DX Z (ip), vehicle: saline
  T/C: 122 % of control
dose: 60.0 mg/kg/injection, schedule: Q01DX Z (ip), vehicle: saline
  T/C: 233 % of control
dose: 120.0 mg/kg/injection, schedule: Q01DX Z (ip), vehicle: saline
  T/C: 206 % of control
dose: 480.0 mg/kg/injection, schedule: Q01DX Z (ip), vehicle: saline
  T/C: 96 % of control

## COC(=O)c1ccccc1NC(=O)Cc1ccccc1
[1]
  T/C: 91 % of control
[3]
  T/C: 98 % of control
[5]
  T/C: 98 % of control

## NC(=S)N/N=C1/c2ccccc2-c2cc(Br)ccc21
[8]
  T/C: 106 % of control
[2]
  T/C: 97 % of control
[4]
  T/C: 100 % of control

## O=C1/C(=C2\CCCc3ccc(Cl)cc32)CCc2ccc(Cl)cc21
dose: 100.0 mg/kg/injection, schedule: Q01DX009 (ip), vehicle: saline with Tween-80
  T/C: 100 % of control
dose: 200.0 mg/kg/injection, schedule: Q01DX009 (ip), vehicle: saline with Tween-80
  T/C: 97 % of control
dose: 400.0 mg/kg/injection, schedule: Q01DX009 (ip), vehicle: saline with Tween-80
  T/C: 96 % of control

## O=C1OC(=O)c2c1ccc1ccc(Cl)cc21
[9]
  T/C: 94 % of control
[10]
  T/C: 94 % of control
[11]
  T/C: 102 % of control

## Cc1cc(C)c2c(c1)CC2NC(=O)Cc1ccccc1 (stereo not given)
dose: 25.0 mg/kg/injection, schedule: Q04DX002 (ip), vehicle: Klucel (hydroxypropylcellulose) (HPC)
  T/C: 116 % of control
dose: 50.0 mg/kg/injection, schedule: Q04DX002 (ip), vehicle: Klucel (hydroxypropylcellulose) (HPC)
  T/C: 89 % of control
dose: 100.0 mg/kg/injection, schedule: Q04DX002 (ip), vehicle: Klucel (hydroxypropylcellulose) (HPC)
  T/C: 92 % of control

## O=C(N1CCCCC1)N1CCCCC1
dose: 100.0 mg/kg/injection, schedule: Q04DX002 (ip), vehicle: other
  T/C: 105 % of control
dose: 200.0 mg/kg/injection, schedule: Q04DX002 (ip), vehicle: other
  T/C: 91 % of control
dose: 400.0 mg/kg/injection, schedule: Q04DX002 (ip), vehicle: other
  T/C: 88 % of control

## CC(=O)Nc1ccc(N=Cc2ccc([N+](=O)[O-])s2)cc1
[9]
  T/C: 100 % of control
[10]
  T/C: 96 % of control
[11]
  T/C: 98 % of control

## CC(C)N(CCN)C(C)C
[12]
  T/C: 94 % of control
[13]
  T/C: 103 % of control
[6]
  T/C: 95 % of control
dose: 200.0 mg/kg/injection, schedule: Q01DX009 (ip), vehicle: saline
  T/C: 103 % of control
[7]
  T/C: 97 % of control

## CCOC(=O)C(=Cc1ccc(C=C(C(=O)OCC)C(=O)OCC)cc1)C(=O)OCC
[8]
  T/C: 100 % of control
[2]
  T/C: 100 % of control
[4]
  T/C: 94 % of control

## CCCNC
[12]
  T/C: 90 % of control
[13]
  T/C: 100 % of control
[6]
  T/C: 96 % of control
[7]
  T/C: 98 % of control
